Target: T1, SMARCA2 (Homo sapiens, UniProt P51531)
T1 construct: endogenous in cells; host or cells: HT1080 (CRISPR HiBiT knock-in clone, generated in house)
Assay: SMARCA2 HiBiT degradation assay (cellular)
Assay type: cell-based
Conditions: table head names A549; for DC50: 6 h incubation, HiBiT-tagged SMARCA2, luminescence read-out, read-out: HiBit A549 SMARCA2 IP (nM) 6 h; for Emax: A549, 6 h incubation, Emax = amount of residual protein remaining in the cell following compound treatment

T1 sequence (P51531 whole entry): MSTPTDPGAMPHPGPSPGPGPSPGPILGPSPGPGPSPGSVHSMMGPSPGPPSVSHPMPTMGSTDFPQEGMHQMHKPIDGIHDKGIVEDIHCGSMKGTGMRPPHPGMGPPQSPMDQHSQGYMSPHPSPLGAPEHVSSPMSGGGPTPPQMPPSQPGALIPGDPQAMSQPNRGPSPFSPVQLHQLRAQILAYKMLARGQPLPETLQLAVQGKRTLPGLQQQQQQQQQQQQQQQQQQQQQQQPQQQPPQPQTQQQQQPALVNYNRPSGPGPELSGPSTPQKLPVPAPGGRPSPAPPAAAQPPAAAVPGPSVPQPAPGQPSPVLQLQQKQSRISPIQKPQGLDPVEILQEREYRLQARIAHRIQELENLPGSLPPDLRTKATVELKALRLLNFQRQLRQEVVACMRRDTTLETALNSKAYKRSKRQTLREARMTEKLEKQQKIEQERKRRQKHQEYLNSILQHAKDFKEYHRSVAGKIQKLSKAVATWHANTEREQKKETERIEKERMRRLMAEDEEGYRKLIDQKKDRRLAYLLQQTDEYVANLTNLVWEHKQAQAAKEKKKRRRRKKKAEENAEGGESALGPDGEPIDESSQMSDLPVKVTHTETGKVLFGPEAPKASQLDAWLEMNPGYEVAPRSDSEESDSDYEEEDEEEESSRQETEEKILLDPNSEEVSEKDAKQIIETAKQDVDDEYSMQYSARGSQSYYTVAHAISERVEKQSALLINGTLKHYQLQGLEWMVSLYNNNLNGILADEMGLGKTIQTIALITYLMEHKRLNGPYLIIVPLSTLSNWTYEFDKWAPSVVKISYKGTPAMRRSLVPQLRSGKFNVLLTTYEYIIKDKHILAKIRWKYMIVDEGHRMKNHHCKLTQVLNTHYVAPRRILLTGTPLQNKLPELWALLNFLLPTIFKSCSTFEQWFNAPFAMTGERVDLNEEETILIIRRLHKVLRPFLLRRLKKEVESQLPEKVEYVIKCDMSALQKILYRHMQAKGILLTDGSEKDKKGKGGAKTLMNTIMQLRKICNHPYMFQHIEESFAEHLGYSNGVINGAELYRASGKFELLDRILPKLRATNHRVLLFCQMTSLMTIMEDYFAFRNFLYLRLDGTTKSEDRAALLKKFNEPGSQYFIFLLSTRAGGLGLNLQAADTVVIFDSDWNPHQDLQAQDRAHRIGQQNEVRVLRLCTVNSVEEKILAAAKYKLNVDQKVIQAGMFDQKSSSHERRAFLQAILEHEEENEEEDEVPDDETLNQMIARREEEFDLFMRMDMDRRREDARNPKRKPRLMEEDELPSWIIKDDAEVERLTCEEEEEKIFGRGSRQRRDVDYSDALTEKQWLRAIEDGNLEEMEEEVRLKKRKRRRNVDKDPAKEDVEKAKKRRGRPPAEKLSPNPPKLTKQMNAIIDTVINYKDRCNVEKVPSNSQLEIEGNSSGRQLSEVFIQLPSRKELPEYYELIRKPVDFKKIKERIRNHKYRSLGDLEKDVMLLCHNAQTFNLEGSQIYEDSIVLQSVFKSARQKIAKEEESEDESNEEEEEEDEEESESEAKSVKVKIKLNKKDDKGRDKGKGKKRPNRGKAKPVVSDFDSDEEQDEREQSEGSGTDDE

`Nc1nnc(-c2ccccc2O)cc1OC1CCCN(c2ccc(OCCN3CCN(C(=O)CCCCCCCCn4cc(CNc5cccc6c5C(=O)N(C5CCC(=O)NC5=O)C6=O)nn4)CC3)cc2)C1` (stereo not shown) [Example 27, 4-[[1-[9-[4-[2-[4-[3-[3-amino-6-(2-hydroxyphenyl)pyridazin-4-yl]oxy-1-piperidyl]phenoxy]ethyl]piperazin-1-yl]-9-oxo-nonyl]triazol-4-yl]methylamino]-2-(2,6-dioxo-3-piperidyl)isoindoline-1,3-dione] was tested, and the DC50 was 333 nM and the Emax was 57%.
With `Nc1nnc(-c2ccccc2O)cc1OC1CCCN(c2ccc(N3CCN(C(=O)CCCCCCCCCn4cc(CNc5cccc6c5C(=O)N(C5CCC(=O)NC5=O)C6=O)nn4)CC3)cc2)C1` (stereo not shown) [Example 28, 4-[[1-[10-[4-[4-[3-[3-amino-6-(2-hydroxyphenyl)pyridazin-4-yl]oxy-1-piperidyl]phenyl]piperazin-1-yl]-10-oxo-decyl]triazol-4-yl]methylamino]-2-(2,6-dioxo-3-piperidyl)isoindoline-1,3-dione] the DC50 was 91 nM and the Emax was 48%.
`Nc1nnc(-c2ccccc2O)cc1OC1CCCN(c2ccc(N3CCN(C(=O)CCCCCCCCCCn4cc(CNc5cccc6c5C(=O)N(C5CCC(=O)NC5=O)C6=O)nn4)CC3)cc2)C1` (stereo not shown) [Example 29, 4-[[1-[11-[4-[4-[3-[3-amino-6-(2-hydroxyphenyl)pyridazin-4-yl]oxy-1-piperidyl]phenyl]piperazin-1-yl]-11-oxo-undecyl]triazol-4-yl]methylamino]-2-(2,6-dioxo-3-piperidyl)isoindoline-1,3-dione] was tested, and the DC50 was 158 nM and the Emax was 50%.
`Nc1nnc(-c2ccccc2O)cc1N1CC(Oc2cccc(CN3CCN(C(=O)CCCCCCNc4cccc5c4C(=O)N(C4CCC(=O)NC4=O)C5=O)CC3)c2)C1` (stereo not shown) [Example 30, 4-[[7-[4-[[3-[1-[3-amino-6-(2-hydroxyphenyl)pyridazin-4-yl]azetidin-3-yl]oxyphenyl]methyl]piperazin-1-yl]-7-oxo-heptyl]amino]-2-(2,6-dioxo-3-piperidyl)isoindoline-1,3-dione] was tested, and the DC50 was 92 nM and the Emax was 63%.
`Nc1nnc(-c2ccccc2O)cc1N1CC(Oc2cccc(CN3CCN(C(=O)CCCCCCCCCNc4cccc5c4C(=O)N(C4CCC(=O)NC4=O)C5=O)CC3)c2)C1` (stereo not shown) [Example 32, 4-[[10-[4-[[3-[1-[3-amino-6-(2-hydroxyphenyl)pyridazin-4-yl]azetidin-3-yl]oxyphenyl]methyl]piperazin-1-yl]-10-oxo-decyl]amino]-2-(2,6-dioxo-3-piperidyl)isoindoline-1,3-dione] was tested, and the DC50 was 281 nM and the Emax was 62%.
`Nc1nnc(-c2ccccc2O)cc1OC1CCCN(c2ccc(N3CCN(CCCCCCCCCn4cc(CNc5cccc6c5C(=O)N(C5CCC(=O)NC5=O)C6=O)nn4)CC3)cc2)C1` (stereo not shown) [Example 37, 4-[[1-[9-[4-[4-[3-[3-amino-6-(2-hydroxyphenyl)pyridazin-4-yl]oxy-1-piperidyl]phenyl]piperazin-1-yl]nonyl]triazol-4-yl]methylamino]-2-(2,6-dioxo-3-piperidyl)isoindoline-1,3-dione] gave a DC50 of 57 nM and an Emax of 34%.
For `Nc1nnc(-c2ccccc2O)cc1N1CC(Oc2cccc(N3CCN(C(=O)CCCCCCCCCNc4cccc5c4C(=O)N(C4CCC(=O)NC4=O)C5=O)CC3)c2)C1` (stereo not shown) [Example 39, 4-[[10-[4-[3-[1-[3-amino-6-(2-hydroxyphenyl)pyridazin-4-yl]azetidin-3-yl]oxyphenyl]piperazin-1-yl]-10-oxo-decyl]amino]-2-(2,6-dioxo-3-piperidyl)isoindoline-1,3-dione], the DC50 was 718 nM and the Emax was 63%.
Work on `Nc1nnc(-c2ccccc2O)cc1OC1CCCN(c2ccc(N3CCN(C(=O)CCCCCCCCN4CCC(Oc5ccc6c(c5)C(=O)N(C5CCC(=O)NC5=O)C6=O)CC4)CC3)cc2)C1` (stereo not shown) [Example 44, 5-[[1-[9-[4-[4-[3-[3-amino-6-(2-hydroxyphenyl)pyridazin-4-yl]oxy-1-piperidyl]phenyl]piperazin-1-yl]-9-oxo-nonyl]-4-piperidyl]oxy]-2-(2,6-dioxo-3-piperidyl)isoindoline-1,3-dione] yielded a DC50 of 133 nM and an Emax of 61%.
In the case of `Nc1nnc(-c2ccccc2O)cc1N1CCN(c2ccccc2)C(C(=O)NC2CCN(C(=O)CC3CCN(c4ccc5c(c4)C(=O)N(C4CCC(=O)NC4=O)C5=O)CC3)CC2)C1` (stereo not shown) [Example 53, 4-[3-amino-6-(2-hydroxyphenyl)pyridazin-4-yl]-N-[1-[2-[1-[2-(2,6-dioxo-3-piperidyl)-1,3-dioxo-isoindolin-5-yl]-4-piperidyl]acetyl]-4-piperidyl]-1-phenyl-piperazine-2-carboxamide], the DC50 is reported as 122 nM and the Emax is reported as 46%.
Compound `Nc1nnc(-c2ccccc2O)cc1N1CCN(c2ccccc2)C(C(=O)NC2CCN(C(=O)CCC3CCN(c4ccc5c(c4)C(=O)N(C4CCC(=O)NC4=O)C5=O)CC3)CC2)C1` (stereo not shown) [Example 54, 4-[3-amino-6-(2-hydroxyphenyl)pyridazin-4-yl]-N-[1-[3-[1-[2-(2,6-dioxo-3-piperidyl)-1,3-dioxo-isoindolin-5-yl]-4-piperidyl]propanoyl]-4-piperidyl]-1-phenyl-piperazine-2-carboxamide] has a DC50 of 42 nM and an Emax of 63%.
For `Nc1nnc(-c2cc(F)ccc2O)cc1N1C2CCC1CN(c1cccc(OCCN3CCN(CC4CCN(c5ccc6c(c5)C(=O)N(C5CCC(=O)NC5=O)C6=O)CC4)CC3)c1)C2` (stereo not shown) [Example 57, 5-[4-[[4-[2-[3-[8-[3-amino-6-(5-fluoro-2-hydroxy-phenyl)pyridazin-4-yl]-3,8-diazabicyclo[3.2.1]octan-3-yl]phenoxy]ethyl]piperazin-1-yl]methyl]-1-piperidyl]-2-(2,6-dioxo-3-piperidyl)isoindoline-1,3-dione], the DC50 was 406 nM and the Emax was 67%.
With `Nc1nnc(-c2ccccc2O)cc1O[C@@H]1CCCN(c2ccc(N3CCN(CCCCCCCCCn4cc(CNc5cccc6c5C(=O)N(C5CCC(=O)NC5=O)C6=O)nn4)CC3)cc2)C1` (stereo partly drawn) [Example 63, 4-[[1-[9-[4-[4-[(3R)-3-[3-amino-6-(2-hydroxyphenyl)pyridazin-4-yl]oxy-1-piperidyl]phenyl]piperazin-1-yl]nonyl]triazol-4-yl]methylamino]-2-(2,6-dioxo-3-piperidyl)isoindoline-1,3-dione] the DC50 was 59 nM and the Emax was 27%.
`Nc1nnc(-c2cc(F)ccc2O)cc1OC1CCCN(c2ccc(N3CCN(C(=O)CCCCCCCCn4cc(CNc5cccc6c5C(=O)N(C5CCC(=O)NC5=O)C6=O)nn4)CC3)cc2)C1` (stereo not shown) [Example 64, 4-[[1-[9-[4-[4-[3-[3-amino-6-(5-fluoro-2-hydroxy-phenyl)pyridazin-4-yl]oxy-1-piperidyl]phenyl]piperazin-1-yl]-9-oxo-nonyl]triazol-4-yl]methylamino]-2-(2,6-dioxo-3-piperidyl)isoindoline-1,3-dione] showed a DC50 of 82 nM and an Emax of 52%.
With `Nc1nnc(-c2ccccc2O)cc1OC1CCCN(c2ccc(N3CCN(CCCCCCCCCn4cc(COc5cccc6c5C(=O)N(C5CCC(=O)NC5=O)C6=O)nn4)CC3)cc2)C1` (stereo not shown) [Example 65, 4-[[1-[9-[4-[4-[3-[3-amino-6-(2-hydroxyphenyl)pyridazin-4-yl]oxy-1-piperidyl]phenyl]piperazin-1-yl]nonyl]triazol-4-yl]methoxy]-2-(2,6-dioxo-3-piperidyl)isoindoline-1,3-dione] the DC50 was 115 nM and the Emax was 31%.

Source: patent US20230024096A1, “BIFUNCTIONAL COMPOUNDS FOR THE TREATMENT OF CANCER” (Hoffmann-La Roche Inc., priority 2019, published 2023)
